Measurements from the supplement of paper PMC7017272.
± gives the standard deviation of the averaged measurements.

How the values were obtained:
UT-SCC-81 [1] = test: maximal % inhibition of viability relative to DMSO; higher = stronger effect; details: treatment time: 3 days
Procedure: (§1)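 HNSCC cell lines (500 cells/well, 384-well) were cultured on plastic, on top of (2D) or embedded (3D) in Matrigel or human leiomyoma matrix Myogel (500 ug/mL; Myogel 3D mixed with rat collagen I). Cells were treated for 3 days with 5 ten-fold concentrations of each drug, and viability was read by CellTiter-Glo. Viability was normalised to DMSO and benzethonium chloride controls and fitted with the FIMM DSRT pipeline to give IC50 (nM), maximal % inhibition and DSS. Suffixes _1/_2/_3 are replicates. Only inhibition-mode (IC50) fits are kept.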

UT-SCC-8 = test: as above; details: treatment time: 3 days
Procedure: as §1

UT-SCC-24B [2] = test: as above; details: treatment time: 3 days
Procedure: as §1

UT-SCC-14 [3] = test: as above; details: treatment time: 3 days
Procedure: as §1

UT-SCC-40 [4] = test: as above; details: treatment time: 3 days
Procedure: as §1

UT-SCC-42B [5] = test: as above; details: treatment time: 3 days
Procedure: as §1

UT-SCC-28 [6] = test: as above; details: treatment time: 3 days
Procedure: as §1

UT-SCC-42A [7] = test: as above; details: treatment time: 3 days
Procedure: as §1

UT-SCC-24A = test: relative IC50 (midpoint of the fitted curve; maximal inhibition may be below 50%); higher = less potent; details: treatment time: 3 days
Procedure: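 HNSCC cell lines (500 cells/well, 384-well) were cultured on plastic, on top of (2D) or embedded (3D) in Matrigel or human leiomyoma matrix Myogel (500 ug/mL; Myogel 3D mixed with rat collagen I). Cells were treated for 3 days with 5 ten-fold concentrations of each drug, and viability was read by CellTiter-Glo. Viability was normalised to DMSO (0% inhibition) and 100 uM benzethonium chloride (100% inhibition) controls and fitted with the FIMM DSRT pipeline to give IC50 (nM), maximal % inhibition and the drug sensitivity score (DSS). Suffixes _1/_2/_3 on drug names are replicates.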

UT-SCC-81 [8] = test: relative IC50 (midpoint of the fitted curve; maximal inhibition may be below 50%); higher = less potent; details: treatment time: 3 days
Outline: (§2)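 Viability of HPV-negative HNSCC cell lines was measured by CellTiter-Glo 2.0 luminescence. Cells were seeded at 500 cells/well in 384-well plates on plastic, on Matrigel- or Myogel-coated wells (500 µg/mL), or embedded in Matrigel or Myogel plus rat collagen I, then given compounds at five 10-fold concentrations for 3 days, with signals normalised to vehicle (0.1% DMSO) and cell-killing control wells. Fitting of percent-inhibition dose–response curves in the FIMM pipeline yielded IC50, maximal inhibition and drug sensitivity score.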

UT-SCC-24B [9] = test: as above; details: culture condition: on top of Myogel; treatment time: 3 days
Outline: as §2

UT-SCC-44 = test: as above; details: treatment time: 3 days
Outline: as §2

UT-SCC-73 = test: as above; details: treatment time: 3 days
Outline: as §2

UT-SCC-14 [10] = test: as above; details: culture condition: on top of Matrigel; treatment time: 3 days
Outline: as §2

UT-SCC-106A = test: as above; details: treatment time: 3 days
Outline: as §2

UT-SCC-40 [11] = test: as above; details: treatment time: 3 days
Outline: as §2

UT-SCC-42B [12] = test: as above; details: culture condition: plastic 2D (no matrix); treatment time: 3 days
Outline: as §2

UT-SCC-28 [13] = test: as above; details: culture condition: embedded in Myogel + collagen I; treatment time: 3 days
Outline: as §2

UT-SCC-42A [14] = test: as above; details: treatment time: 3 days
Outline: as §2

[15] = culture condition: embedded in Matrigel
[16] = culture condition: embedded in Myogel + collagen I
[17] = culture condition: on top of Matrigel
[18] = culture condition: on top of Myogel
[19] = culture condition: plastic 2D (no matrix)

CO[C@H]1C[C@@H]2CC[C@@H](C)[C@@](O)(O2)C(=O)C(=O)N2CCCC[C@H]2C(=O)O[C@H]([C@H](C)C[C@@H]2CC[C@@H](OCCO)[C@H](OC)C2)CC(=O)[C@H](C)/C=C(\C)[C@@H](O)[C@@H](OC)C(=O)[C@H](C)C[C@H](C)/C=C/C=C/C=C/1C [Everolimus]
maximal % inhibition of viability (UT-SCC-81 [1]; [15]): 43.5 ± 14% | maximal % inhibition of viability (UT-SCC-81 [1]; [16]): 54.1 ± 1.6% | maximal % inhibition of viability (UT-SCC-81 [1]; [17]): 39.4 ± 3.5% | maximal % inhibition of viability (UT-SCC-81 [1]; [18]): 53.2 ± 3.5% | maximal % inhibition of viability (UT-SCC-81 [1]; [19]): 46.8 ± 3.7% | maximal % inhibition of viability (UT-SCC-8; [15]): 39.1 ± 2.8% | maximal % inhibition of viability (UT-SCC-8; [16]): 36.4 ± 12% | maximal % inhibition of viability (UT-SCC-8; [17]): 36.6 ± 9.4% | maximal % inhibition of viability (UT-SCC-8; [18]): 46.9 ± 14% | maximal % inhibition of viability (UT-SCC-8; [19]): 44.7 ± 11% | maximal % inhibition of viability (UT-SCC-24B [2]; [15]): 28.7 ± 6.1% | maximal % inhibition of viability (UT-SCC-24B [2]; [16]): 44.8 ± 5.3% | maximal % inhibition of viability (UT-SCC-24B [2]; [17]): 18.1 ± 0.91% | maximal % inhibition of viability (UT-SCC-24B [2]; [18]): 30.1 ± 8.6% | maximal % inhibition of viability (UT-SCC-24B [2]; [19]): 24.9 ± 3% | maximal % inhibition of viability (UT-SCC-14 [3]; [15]): 58 ± 10% | maximal % inhibition of viability (UT-SCC-14 [3]; [16]): 50.9 ± 5.5% | maximal % inhibition of viability (UT-SCC-14 [3]; [17]): 47.6 ± 5.8% | maximal % inhibition of viability (UT-SCC-14 [3]; [18]): 42.6 ± 0.36% | maximal % inhibition of viability (UT-SCC-14 [3]; [19]): 46.4 ± 8.9% | maximal % inhibition of viability (UT-SCC-40 [4]; [15]): 27.2 ± 25% | maximal % inhibition of viability (UT-SCC-40 [4]; [16]): 33.3 ± 4.4% | maximal % inhibition of viability (UT-SCC-40 [4]; [17]): 23.3 ± 5.5% | maximal % inhibition of viability (UT-SCC-40 [4]; [18]): 20.2 ± 10% | maximal % inhibition of viability (UT-SCC-40 [4]; [19]): 21.6 ± 8.3% | maximal % inhibition of viability (UT-SCC-42B [5]; [15]): 14.8 ± 5.8% | maximal % inhibition of viability (UT-SCC-42B [5]; [17]): 14.4 ± 2.9% | maximal % inhibition of viability (UT-SCC-42B [5]; [18]): 10.9 ± 2.4% | maximal % inhibition of viability (UT-SCC-42B [5]; [19]): 12.6 ± 3.1% | maximal % inhibition of viability (UT-SCC-28 [6]; [15]): 28.6 ± 11% | maximal % inhibition of viability (UT-SCC-28 [6]; [16]): 27.7 ± 7.6% | maximal % inhibition of viability (UT-SCC-28 [6]; [17]): 28.2 ± 6.3% | maximal % inhibition of viability (UT-SCC-28 [6]; [19]): 28.1 ± 8.8% | maximal % inhibition of viability (UT-SCC-42A [7]; [15]): 17.3 ± 9.2% | maximal % inhibition of viability (UT-SCC-42A [7]; [16]): 32.2 ± 2.5% | maximal % inhibition of viability (UT-SCC-42A [7]; [17]): 34.3 ± 6% | maximal % inhibition of viability (UT-SCC-42A [7]; [18]): 33.1 ± 5% | maximal % inhibition of viability (UT-SCC-42A [7]; [19]): 29.9 ± 2.9% | relative IC50 (UT-SCC-24A; [16]): 0.761 nM | relative IC50 (UT-SCC-24A; [18]): 10.4 nM | relative IC50 (UT-SCC-81 [8]; [16]): 2.53 nM | relative IC50 (UT-SCC-81 [8]; [17]): 6.53 nM | relative IC50 (UT-SCC-81 [8]; [18]): 6.12 nM | relative IC50 (UT-SCC-81 [8]; [19]): 2.97 nM | relative IC50 (UT-SCC-24B [9]): 5.03 nM | relative IC50 (UT-SCC-44; [16]): 6.3 nM | relative IC50 (UT-SCC-44; [17]): 0.89 nM | relative IC50 (UT-SCC-44; [18]): 1.1 nM | relative IC50 (UT-SCC-73; [17]): 1.92 nM | relative IC50 (UT-SCC-73; [19]): 7.59 nM | relative IC50 (UT-SCC-14 [10]): 6.41 nM | relative IC50 (UT-SCC-106A; [15]): 28.4 nM | relative IC50 (UT-SCC-106A; [18]): 8.1 nM | relative IC50 (UT-SCC-40 [11]; [15]): 4.61 nM | relative IC50 (UT-SCC-40 [11]; [19]): 9.09 nM | relative IC50 (UT-SCC-42B [12]): 20.8 nM | relative IC50 (UT-SCC-28 [13]): 6.89 nM | relative IC50 (UT-SCC-42A [14]; [16]): 5.97 nM | relative IC50 (UT-SCC-42A [14]; [17]): 15 nM | relative IC50 (UT-SCC-42A [14]; [18]): 10.5 nM
